Like-named read-outs stand apart in the source and are kept apart here.
Experiments:
[1] = Calculated log partition coefficients; type: physicochemical; details: data from Wenkers and Lippold 1999; for log KMO:1.0: mineral oil:acidic water (pH 1.0) partition coefficient, calculated from log KOCT:1.0 − log KOCT:MO; for log KOCT:MO: octanol:mineral oil partition coefficient, calculated from log KOCT:1.0 − log KMO:1.0
[2] = set-up: method as in Wenkers and Lippold 1999 [6]; details: log maximum flux through human skin in vivo from mineral oil; ref Wenkers and Lippold 1999 [6]; cited from earlier work
[3] = Maximum flux through silicone membranes from mineral oil (Franz diffusion cells)
[4] = Calculated solubilities in octanol, pH 7.4 buffer and acidic water; type: physicochemical; details: data from Wenkers and Lippold 1999; for log S1.0: solubility in acidic water (pH 1.0), calculated from log SMO − log KMO:1.0; for log SOCT: solubility in octanol, calculated from log KOCT:MO and log SMO; for log S7.4: solubility in pH 7.4 phosphate buffer, calculated from log SOCT − log KOCT:7.4
Protocol: Experimental solubility in mineral oil from Wenkers and Lippold was converted to units of mM from mg/dL. The values of log S7.4 were calculated from log SOCT − log KOCT:7.4, the values of log SOCT were calculated from log KOCT:MO + log SMO, and the values of log S1.0 were calculated from log SMO − log KMO:1.0.

[5] = pH 7.1
[6] = Stability in pH 7.1 phosphate buffer (receptor phase); type: physicochemical; details: measured after 24 h as salicylic acid
Protocol: Molar extinction coefficients for the compounds in pH 7.1 phosphate buffer, the receptor phase, were determined experimentally. Each compound was initially dissolved in a small volume of acetonitrile (except Diflunisal, which was dissolved in ethanol). These solutions were diluted further with the buffer solution to concentrations that would produce accurate UV absorptions. A plot of absorbance versus concentration produced the slope in units of M^−1. There was only one instance of a major variation in this procedure. […] Thus, the molar extinction coefficient and the concentrations measured after 24 h were that of salicylic acid.

[7] = log maximum flux through silicone membrane from mineral oil suspension, 32 °C, pH 7.1 phosphate buffer receptor phase, measured directly

Row | log KMO:1.0 [1] | log KOCT:MO [1] | log JMPMO [3, 7] [µmol cm^−2 h^−1] | log S1.0 [4] [mM] | log SOCT [4] [mM] | log S7.4 [4] [mM] | log JMPMO [5] [µmol cm^−2 h^−1] | log JMPMO ([3]; first procedure, 3 h collection intervals) | log JMPMO ([3]; repeat diffusion cell experiment with 2 h collection intervals, receptor phases ≤20% saturation) | Structure (SMILES) | log JMHMO [2] [µmol cm^−2 h^−1] | stability in phosphate buffer [6]
1 | 1.41 | 2.91 | −1.91 | −2.43 | 1.89 | −0.09 | – | – | – | O=C(O)Cc1ccccc1Nc1c(Cl)cccc1Cl [Diclofenac] | −2.89 | –
2 | 0.20 | 1.49 | −2.08 | −0.94 | 0.75 | 0.95 | – | – | – | CN1C(C(=O)Nc2ccccn2)=C(O)c2ccccc2S1(=O)=O [Piroxicam] | −2.40 | –
3 | – | – | −1.18 | – | – | – | – | – | – | CC(C(=O)O)c1cccc(C(=O)c2ccccc2)c1 (centres unmarked) [Ketoprofen] | – | –

More lines, now with the values behind:

Row | Structure (SMILES) | log KMO:1.0 [1] | log KOCT:MO [1] | log JMPMO [3, 7] [µmol cm^−2 h^−1] | log S1.0 [4] [mM] | log SOCT [4] [mM] | log S7.4 [4] [mM] | log JMPMO [5] [µmol cm^−2 h^−1] | log JMPMO ([3]; first procedure, 3 h collection intervals) | log JMPMO ([3]; repeat diffusion cell experiment with 2 h collection intervals, receptor phases ≤20% saturation) | log JMHMO [2] [µmol cm^−2 h^−1] | stability in phosphate buffer [6]
4 | COc1ccc2cc([C@H](C)C(=O)O)ccc2c1 [Naproxen] | – | – | – | – | – | – | −1.46 | – | – | – | –
5 | O=C(O)c1ccccc1Nc1cccc(C(F)(F)F)c1 [Flufenamic Acid] | 2.74 | 1.93 | −0.60 | −2.21 | 2.46 | 0.31 | – | – | – | −1.86 | –
6 | O=C(O)c1cc(-c2ccc(F)cc2F)ccc1O [Diflunisal] | 0.88 | 3.36 | −1.69 | −2.05 | 2.19 | 1.61 | – | – | – | −2.44 | –
7 | CC(=O)Oc1ccccc1C(=O)O [Aspirin] | −2.02 | 3.96 | −1.18 | – | 3.14 | 5.18 | – | – | – | −1.72 | readily hydrolyzed to salicylic acid and acetic acid
8 | COc1ccc2cc(CCC(C)=O)ccc2c1 [Nabumetone] | 2.72 | 0.57 | −1.53 | −1.53 | 1.76 | −1.12 | – | −1.55 | −1.53 | −1.10 | –
9 | CC(C)Cc1ccc(C(C)C(=O)O)cc1 (centres unmarked) [Ibuprofen] | 3.06 | 1.15 | 0.34 | −0.97 | 3.24 | 2.02 | – | – | – | −0.25 | –

Source: article PMC4190524, “The Flux of Select NSAIDs through Silicone Membranes from Mineral Oil” (Pharmaceutics, 2014)
